From patent US5616606A, “Oligopeptide antiretroviral agents” (priority 1995, dated 1997)
Values joined by “and” are separate entries in the source; they are usually repeats but may differ in a detail not shown here. Equal values may be shown once. “Also recorded” adds a separate entry of the source. Read-outs that look alike come from different tables or passages of the source.

How the values were obtained:
2.2.15 cells = assay: toxicity analysis, neutral red dye uptake in 2.2.15 cells; conditions: triplicate, ± standard deviation
HIV-1 = conditions: for EC50: Table XI; for Anti-HIV-1 Activity (National Cancer Institute Designation): inactive, moderate or active; for INFECTED RESPONSE % of Control: Table IX
HBV = assay: inhibition of HBV DNA replication in 2.2.15 cell cultures; type: cell-based; conditions: for INT[…] DNA MONO.: 24 hours following the 9th day of treatment; for INT[…] DNA MONO. / HBV VIRION DNA DAY 0 / HBV VIRION DNA DAY 9 / HBV VIRION DNA DAY 6: single well; for effect on HBV replication (in words): tested at 50 and 10 μM, compared with 2',3'-ddC
[1] = solubility in DMSO, MeOH, H2O; type: physicochemical
calf thymus DNA = assay: ethidium displacement assay, drug-DNA binding constant, calf thymus DNA; conditions: relative to ethidium 10^7 M^-1, average of repeat measurements
poly(dA-dT) = assay: ethidium displacement assay, poly(dA-dT); conditions: relative to ethidium 9.5 × 10^6 M^-1, average of repeat measurements
[2] = molecular target: Moloney Leukemia Virus reverse transcriptase (Moloney murine leukemia virus, UniProt P03355); assay: inhibition of MLV associated reverse transcriptase activity
[3] = system: Moloney murine leukemia virus (MLV); assay: anti-Moloney murine leukemia virus (MLV) plaque test; type: cell-based; conditions: anti-MLV plaque count
SC-1 cells = assay: toxicity TD50 reported with the anti-MLV test; conditions: Table IV
[4] = system: T4 lymphocytes (CEM cell line); assay: NCI anti-HIV screen, toxicity control in uninfected cells; type: cell-based; conditions: Table IX
[5] = 50 μM, zero = undetectable, cutoff 0.1 pg/ml, dihydrochloride
[6] = 10 μM, listed as Compound 14, dihydrochloride
[7] = 50 μM, listed as Compound 14, dihydrochloride

## Cl.Cl.Cn1cc(NC(=O)c2cc(NC(=O)Nc3cc(C(=O)Nc4cc(C(=O)NCCC(=N)N)n(C)c4)n(C)c3)cn2C)cc1C(=O)NCCC(=N)N [Compound 3, N,N'-Di(1-methyl-2-[1-methyl-2-carboxamido(3-propionamidine)-4-pyrrole]-4-pyrrolyl)urea dihydrochloride]
2.2.15 cells; 10 μg/ml
  NEUTRAL RED DYE UPTAKE: 99 ± 1 % OF CONTROL
2.2.15 cells; 30 μg/ml
  NEUTRAL RED DYE UPTAKE: 99 ± 1 % OF CONTROL
2.2.15 cells; 100 μg/ml
  NEUTRAL RED DYE UPTAKE: 99 ± 2 % OF CONTROL
2.2.15 cells; 300 μg/ml
  NEUTRAL RED DYE UPTAKE: 82 ± 2 % OF CONTROL
HIV-1
  EC50: 11.9 µM
  Anti-HIV-1 Activity (National Cancer Institute Designation): Moderate
HBV; 10 μM, dihydrochloride
  INT[…] DNA MONO.: 2.8 pg/μg CELL DNA and 2.2 pg/μg CELL DNA and 2.6 pg/μg CELL DNA and 2.5 pg/μg CELL DNA
  HBV VIRION DNA DAY 0: 57 pg/ml CULTURE MEDIUM and 64 pg/ml CULTURE MEDIUM and 74 pg/ml CULTURE MEDIUM and 60 pg/ml CULTURE MEDIUM
  HBV VIRION DNA DAY 9: 69 pg/ml CULTURE MEDIUM and 74 pg/ml CULTURE MEDIUM and 94 pg/ml CULTURE MEDIUM and 92 pg/ml CULTURE MEDIUM
HBV; 50 μM, dihydrochloride
  INT[…] DNA MONO.: 2.9 pg/μg CELL DNA and 2.2 pg/μg CELL DNA and 2.4 pg/μg CELL DNA
  HBV VIRION DNA DAY 0: 58 pg/ml CULTURE MEDIUM and 68 pg/ml CULTURE MEDIUM and 81 pg/ml CULTURE MEDIUM
  HBV VIRION DNA DAY 6: 67 pg/ml CULTURE MEDIUM and 44 pg/ml CULTURE MEDIUM and 78 pg/ml CULTURE MEDIUM and 76 pg/ml CULTURE MEDIUM
HBV; [5]
  HBV VIRION DNA DAY 9: 16 pg/ml CULTURE MEDIUM and 13 pg/ml CULTURE MEDIUM and 19 pg/ml CULTURE MEDIUM and 10 pg/ml CULTURE MEDIUM
HBV
  effect on HBV replication (in words): weak inhibitor
[1]
  Solubility in DMSO: good
[1]; H2O
  Solubility in H2O: good
Calf thymus DNA
  DNA Binding Constant: 5.6e+07 M⁻¹

## Cl.Cl.Cn1cc(NC(=O)c2cc(NC(=O)[C@@H]3C[C@H]3C(=O)Nc3cc(C(=O)Nc4cc(C(=O)NCCC(=N)N)n(C)c4)n(C)c3)cn2C)cc1C(=O)NCCC(=N)N [Compound 23b, N,N'-Di(1-methyl-2-[1-methyl-2-carboxamide-(3-proprionamidine)-4-pyrrole]-4-pyrrolyl)transcylcopropyldicarboxamide dihydrochloride]
HIV-1
  EC50: 3.44 µM
  Anti-HIV-1 Activity (National Cancer Institute Designation): Moderate
poly(dA-dT)
  Kapp: 5.3e+07 M⁻¹
[2]; 50% inhibitory dose after 120 min incubation
  ID50 (average ± SD): 7.0 ± 3.6 mg/L

## Cl.Cl.Cn1cc(NC(=O)c2nc(NC(=O)/C=C\C(=O)Nc3cn(C)c(C(=O)Nc4cn(C)c(C(=O)NCCC(=N)N)n4)n3)cn2C)nc1C(=O)NCCC(=N)N [Compound 39, Bis-Lexitropsin]
[3]
  Activity, MIC50: > 100.00 mg/L
SC-1 cells
  Toxicity, TD50: > 100.00 ug/mL^-1

## Cl.Cl.Cn1cc(NC(=O)c2cc(NC(=O)/C=C\C(=O)Nc3cc(C(=O)Nc4cc(C(=O)NCCC(=N)N)n(C)c4)n(C)c3)cn2C)cc1C(=O)NCCC(=N)N [Compound 22b]
[4]; dose 3.02 × 10^-4 Molar
  […] % of Control: -0.86 % of Control
[4]; dose 3.03 × 10^-5 Molar
  […] % of Control: 112.05 % of Control
[4]; dose 3.03 × 10^-6 Molar
  […] % of Control: 103.19 % of Control
[4]; dose 3.04 × 10^-7 Molar
  […] % of Control: 100.16 % of Control
[4]; dose 9.54 × 10^-5 Molar
  […] % of Control: 94.16 % of Control
[4]; dose 9.57 × 10^-4 Molar
  […] % of Control: 5.40 % of Control
[4]; dose 9.59 × 10^-6 Molar
  […] % of Control: 112.20 % of Control
[4]; dose 9.61 × 10^-7 Molar
  […] % of Control: 100.02 % of Control
2.2.15 cells; 10 μg/ml
  NEUTRAL RED DYE UPTAKE: 99 ± 2 % OF CONTROL
2.2.15 cells; 30 μg/ml
  NEUTRAL RED DYE UPTAKE: 98 ± 1 % OF CONTROL
2.2.15 cells; 100 μg/ml
  NEUTRAL RED DYE UPTAKE: 99 ± 1 % OF CONTROL
2.2.15 cells; 300 μg/ml
  NEUTRAL RED DYE UPTAKE: 85 ± 2 % OF CONTROL
HIV-1; dose 3.02 × 10^-4 Molar
  INFECTED RESPONSE % of Control: -0.29 % of Control
HIV-1; dose 3.03 × 10^-5 Molar
  INFECTED RESPONSE % of Control: 114.32 % of Control
HIV-1; dose 3.03 × 10^-6 Molar
  INFECTED RESPONSE % of Control: 44.03 % of Control
HIV-1; dose 3.04 × 10^-7 Molar
  INFECTED RESPONSE % of Control: 28.75 % of Control
HIV-1; dose 9.54 × 10^-5 Molar
  INFECTED RESPONSE % of Control: 84.02 % of Control
HIV-1; dose 9.57 × 10^-4 Molar
  INFECTED RESPONSE % of Control: -0.14 % of Control
HIV-1; dose 9.59 × 10^-6 Molar
  INFECTED RESPONSE % of Control: 115.19 % of Control
HIV-1; dose 9.61 × 10^-7 Molar
  INFECTED RESPONSE % of Control: 32.14 % of Control
HIV-1
  Anti-HIV-1 Activity (National Cancer Institute Designation): Active
HBV; [6]
  INT[…] DNA MONO.: 2.5 pg/μg CELL DNA and 2.2 pg/μg CELL DNA and 2.3 pg/μg CELL DNA and 2.1 pg/μg CELL DNA
  HBV VIRION DNA DAY 0: 50 pg/ml CULTURE MEDIUM and 61 pg/ml CULTURE MEDIUM and 55 pg/ml CULTURE MEDIUM and 67 pg/ml CULTURE MEDIUM
  HBV VIRION DNA DAY 6: 110 pg/ml CULTURE MEDIUM and 120 pg/ml CULTURE MEDIUM and 77 pg/ml CULTURE MEDIUM and 87 pg/ml CULTURE MEDIUM
  HBV VIRION DNA DAY 9: 21 pg/ml CULTURE MEDIUM and 25 pg/ml CULTURE MEDIUM and 22 pg/ml CULTURE MEDIUM and 20 pg/ml CULTURE MEDIUM
HBV; [7]
  INT[…] DNA MONO.: 1.9 pg/μg CELL DNA and 2.0 pg/μg CELL DNA and 2.3 pg/μg CELL DNA
  HBV VIRION DNA DAY 0: 71 pg/ml CULTURE MEDIUM and 89 pg/ml CULTURE MEDIUM and 51 pg/ml CULTURE MEDIUM and 92 pg/ml CULTURE MEDIUM
  HBV VIRION DNA DAY 6: 26 pg/ml CULTURE MEDIUM and 27 pg/ml CULTURE MEDIUM and 36 pg/ml CULTURE MEDIUM and 37 pg/ml CULTURE MEDIUM
HBV; 50 μM, zero = undetectable, cutoff 0.1 pg/ml
  HBV VIRION DNA DAY 9: 1 pg/ml CULTURE MEDIUM
HBV; listed as 14, dihydrochloride
  effect on HBV replication (in words): just slightly less than that observed with the control; also recorded: potent inhibitors
[1]
  Solubility in DMSO: good
[1]; MeOH
  Solubility in MeOH: good
poly(dA-dT)
  Kapp: 3.8e+07 M⁻¹

## Cl.Cl.Cn1cc(NC(=O)c2cc(NC(=O)CC(=O)Nc3cc(C(=O)Nc4cc(C(=O)NCCC(N)=O)n(C)c4)n(C)c3)cn2C)cc1C(=O)NCCC(N)=O [Compound 4, N,N'-Di(1-methyl-2-[1-methyl-2-carboxamido(3-proprionamide)-4-pyrrole]-4-pyrrolyl)malonamide dihydrochloride]
2.2.15 cells; 10 μg/ml
  NEUTRAL RED DYE UPTAKE: 99 ± 1 % OF CONTROL
2.2.15 cells; 100 μg/ml
  NEUTRAL RED DYE UPTAKE: 100 ± 1 % OF CONTROL
2.2.15 cells; 300 μg/ml
  NEUTRAL RED DYE UPTAKE: 99 ± 1 % OF CONTROL
HBV; 10 μM, dihydrochloride
  INT[…] DNA MONO.: 2.3 pg/μg CELL DNA and 2.8 pg/μg CELL DNA and 2.1 pg/μg CELL DNA
  HBV VIRION DNA DAY 0: 77 pg/ml CULTURE MEDIUM and 61 pg/ml CULTURE MEDIUM and 64 pg/ml CULTURE MEDIUM
  HBV VIRION DNA DAY 6: 52 pg/ml CULTURE MEDIUM and 55 pg/ml CULTURE MEDIUM and 96 pg/ml CULTURE MEDIUM and 59 pg/ml CULTURE MEDIUM
  HBV VIRION DNA DAY 9: 73 pg/ml CULTURE MEDIUM and 81 pg/ml CULTURE MEDIUM and 62 pg/ml CULTURE MEDIUM and 50 pg/ml CULTURE MEDIUM
HBV; 50 μM, dihydrochloride
  INT[…] DNA MONO.: 2.5 pg/μg CELL DNA and 2.8 pg/μg CELL DNA and 2.1 pg/μg CELL DNA and 2.4 pg/μg CELL DNA
  HBV VIRION DNA DAY 0: 63 pg/ml CULTURE MEDIUM and 66 pg/ml CULTURE MEDIUM and 78 pg/ml CULTURE MEDIUM and 74 pg/ml CULTURE MEDIUM
  HBV VIRION DNA DAY 6: 86 pg/ml CULTURE MEDIUM and 70 pg/ml CULTURE MEDIUM and 64 pg/ml CULTURE MEDIUM and 88 pg/ml CULTURE MEDIUM
HBV; [5]
  HBV VIRION DNA DAY 9: 97 pg/ml CULTURE MEDIUM and 65 pg/ml CULTURE MEDIUM and 61 pg/ml CULTURE MEDIUM and 85 pg/ml CULTURE MEDIUM
Calf thymus DNA
  DNA Binding Constant: 3.6e+07 M⁻¹

## Cn1cc(NC(=O)c2cc(NC(=O)CNC(=N)N)cn2C)cc1C(=O)NCCC(=N)N [Compound 1, reference compound]
poly(dA-dT)
  Kapp: 9.4e+07 M⁻¹
Calf thymus DNA
  DNA Binding Constant: 1.9e+07 M⁻¹

## Cc1cn([C@H]2C[C@H](N=[N+]=[N-])[C@@H](CO)O2)c(=O)[nH]c1=O [AZT]
[3]
  Activity, MIC50: 0.0014 mg/L
SC-1 cells
  Toxicity, TD50: > 100.00 ug/mL^-1

## Cl.Cl.Cn1cc(NC(=O)c2cc(NC(=O)CCC(=O)Nc3cc(C(=O)Nc4cc(C(=O)NCCC(=N)N)n(C)c4)n(C)c3)cn2C)cc1C(=O)NCCC(=N)N [Compound 5]
2.2.15 cells; 10 μg/ml
  NEUTRAL RED DYE UPTAKE: 99 ± 2 % OF CONTROL
2.2.15 cells; 30 μg/ml
  NEUTRAL RED DYE UPTAKE: 100 ± 1 % OF CONTROL
HIV-1
  Anti-HIV-1 Activity (National Cancer Institute Designation): Moderate
Calf thymus DNA
  DNA Binding Constant: 7.2e+07 M⁻¹

## O=C(O)C1=CC(=C(c2ccc(O)c(C(=O)O)c2)c2ccc(O)c(C(=O)O)c2)C=CC1=O [Aurintricarboxylic acid, reference compound]
[2]
  IC50: 3.36 µM
